In patent US7468379B2, “Inhibition of osteolytic lesions by SRC kinase inhibitors” (The Board of Regents of the University of Texas System, priority 2005, dated 2008):

Key:
[1] = system: Src-dependent protein tyrosine phosphorylation; experiment: Src-dependent protein tyrosine phosphorylation; conditions: concentrations comparable to the Src enzyme IC50
BMM cells [2] = experiment: Cytotoxicity assay against BMM cells (crystal violet); assay type: cell-based
Experimental: (§1) Primary Bone Marrow Cell Culture. Primary bone marrow cells (BMM) from the tibiae and femora were aseptically dissected from Black 6 mice (C57BU6J) 8-12 weeks of age. Bone marrow was flushed out with incomplete D-MEM and centrifuged at 1200 rpm for 3 minutes and re-suspended in 5 ml incomplete D-MEM. BMM cells were incubated in 20 ml Red Blood Cell lysis buffer (8.3 g/NH4Cl, 1 g/l sodium bicarbonate, 0.4 g/l EDTA) at room temperature for 1-2 min. 25 ml of D-MEM supplemented with 10% FBS and 100 units/ml penicillin (complete D-MEM) were added and BMM cells were centrifuged for 3 min at 1200 rpm. BMM cells were then plated at 1.5−2×10^7 cells/10 cm dish with 10 ml of complete D-MEM and cultured for 24 h. Non-adherent cells were collected and centrifuged for 5 min at 1200 rpm and plated at a concentration of 2.5×10^4 cells/well in a 96 well dish for cytotoxicity assay, 2×10^4 cells/well in 48-well plates, or 5×10^3 cells/well in 96-well plates for osteoclast differentiation assays. Cells were cultured for 3 days in the presence of 10 ng/ml M-CSF before they were washed and used for further studies. For differentiation into osteoclasts 30-100 ng/ml RANKL is added. Media was supplemented after 2 days with fresh M-CSF and RANKL.
Cytotoxicity Assay. […] Absorbance was measured at 630 nm using an EL800 universal microplate reader from Bio-Tek Instruments Inc (Winooski, Vt.).

BMM cells [3] = experiment: In vitro RANKL-mediated osteoclast differentiation of BMM cells (TRAP staining); assay type: cell-based, Black 6 mice (C57BL/6J); conditions: M-CSF 10 ng/ml and RANKL 100 ng/ml, TRAP staining on day five
Text: FIGS. 1A-1C. […] M-CSF was replenished on day 3. Cells were fixed and stained for TRAP on day five, using a TRAP staining kit from Sigma-Aldrich (St. Louis, Mo.). (FIG. 1C) Data shown is representative of three experiments. Shown are photographs of representative fields from the different treatments using a 10× objective lens.
(§2) Primary Bone Marrow Cell Culture. Primary bone marrow cells (BMM) from the tibiae and femora were aseptically dissected from Black 6 mice (C57BU6J) 8-12 weeks of age. Bone marrow was flushed out with incomplete D-MEM and centrifuged at 1200 rpm for 3 minutes and re-suspended in 5 ml incomplete D-MEM. BMM cells were incubated in 20 ml Red Blood Cell lysis buffer (8.3 g/NH4Cl, 1 g/l sodium bicarbonate, 0.4 g/l EDTA) at room temperature for 1-2 min. 25 ml of D-MEM supplemented with 10% FBS and 100 units/ml penicillin (complete D-MEM) were added and BMM cells were centrifuged for 3 min at 1200 rpm. BMM cells were then plated at 1.5−2×10^7 cells/10 cm dish with 10 ml of complete D-MEM and cultured for 24 h. […]
In Vitro Osteoclast Differentiation. […] At day 5, cells were fixed and assessed for osteoclast differentiation by counting the total number of TRAP-positive, multinucleated (>3 nuclei), cells per well 96 h post-treatment using Leucocyte Acid phosphatase kit from Sigma-Aldrich (St. Louis, Mo.).

BMM cells [4] = experiment: Time-dependency of osteoclast differentiation inhibition in BMM cells; assay type: cell-based, Black 6 mice (C57BL/6J); conditions: 300 nM SKI606 added 12, 24 or 48 hours post-RANKL stimulation, TRAP at 96 h
Text: FIGS. 2A-2B. BMM cells respond to SKI606 in a time-dependent manner. […] M-CSF was replenished on day 3. Cells were fixed and stained for TRAP on day five, using a TRAP staining kit from Sigma-Aldrich (St. Louis, Mo.). (FIG. 2B) Data shown is representative of three experiments. Photographs are of representative fields from the different treatments using a 10× objective lens.
as §2
Time-dependency. […] Cells were then fixed, stained for TRAP and the numbers of osteoclasts were counted in each condition as described above.

BMM cells [5] = experiment: Bone-resorption assay (collagen I release from OsteoAssay plates); assay type: cell-based, Black 6 mice (C57BL/6J); conditions: 300 nM SKI606 with M-CSF and RANKL, compared to M-CSF and RANKL treatment, day 5
Experimental: as §1, with “Cells were cultured for 3 days in the presence of 10 ng/ml M-CSF before they were washed and used for further studies. For differentiation into osteoclasts 30-100 ng/ml RANKL is added. Media was supplemented after 2 days with fresh M-CSF and RANKL.” left out
Bone-Resorption Assay. […] Bone resorption was evaluated by measuring collagen I release from the OsteoAssay plate using Cross Laps for Culture ELISA kit from Nordic Bioscience Diagnostics (Portsmouth, Va.). Absorbance was measured at 450 nm using the reading at 650 nm as reference using an EL800 universal microplate reader from Bio-Tek Instruments Inc (Winooski, Vt.).

RAW264.7 cells [6] = experiment: RAW264.7 co-culture with MDA-MB-435 cells, osteoclastogenesis (TRAP); assay type: cell-based, mouse; conditions: 400 nM SKI606, 5 days
Experimental: (§3) FIGS. 4A-4B. […] (FIG. 4B) RAW264.7 cells (750 cells/well; 8 wells per treatment) were plated in 96 well plates in 10% conditioned media from MDA-MB-435 for 5 days. The cultures were fixed and stained for TRAP on day five, using a TRAP staining kit from Sigma-Aldrich (St. Louis, Mo.). Data shown is representative of five experiments.
RAW 264.7 Co-culture with MDA MB435 cells and Conditioned Media. For co-culture assays RAW264.7 (500 cells/well) were plated in 96 well plates and allowed to adhere for 12 hours. MDA-MB-435 were then introduced into the RAW264.7 culture at increasing density and incubated for 12 hours. […] Cells were then fixed, stained for TRAP and the numbers of osteoclasts were counted in each condition as described above.

RAW264.7 cells [7] = experiment: RAW264.7 with conditioned media from MDA-MB-435 cells, osteoclastogenesis (TRAP); assay type: cell-based, mouse; conditions: 10% conditioned media, 5 days
Experimental: as §3
For conditioned media the MDA-MB-435 cells were plated in 10 cm plates (1×10^6 cells/plate) and incubated for 36 hours. Media was then removed, centrifuged for 5 minutes at 2500 rpm and supernatants were isolated and placed in 4° C. until use. RAW264.7 cells (750 cells/well) were plated in 96 well plates and allowed to adhere for 12 hours. […] Cells were then fixed, stained for TRAP and the numbers of osteoclasts were counted in each condition as described above.

MDA-MB-435 cells = experiment: MDA-MB-435 Bone Tumor Mouse Model (intratibial injection); assay type: in vivo, Female athymic NCr nude mice; conditions: SKI606 150 mg/kg oral gavage, 9 weeks; tumor-injected tibia sections
Experimental: Mice were divided into 3 treatment groups. […] (FIG. 5A) Weight of tumor was determined as follows: weight of injected leg-weight of non-injected hind leg of the same animal. (FIG. 5B) Areas of lysis were estimated from digital X-ray images; NIH Scion program was used to measure area of tibias and lytic areas, to calculate the ratio of pixels in lytic zones/pixels in tibia area. (FIG. 5C) The tumor-injected tibia was fixed and decalcified in EDTA, and sections stained for the presence of multinucleated osteoclasts (>3 nuclei) using TRAP staining kit from Sigma-Aldrich (St. Louis, Mo.).
X-ray images were taken at 35 days after injection, and also at 14-day intervals. […]
Intrabone Injections and Processing of Bone Tissue Samples. […] After 9 weeks, final X-ray images were taken, tumor weight calculated from the difference in weight of the tumor-bearing and non tumor-bearing leg of the same animal. […] Incidence of tumor in the tibia was determined by examination of histology sections. Weight of tumor was determined as follows: weight of injected leg-weight of non-injected hind leg of the same animal. […]
Mice were divided into three treatment groups and the incidence of tumor in the tibia was determined by examination of histology sections and weight of tumor.

SMILES: COc1cc(Nc2c(C#N)cnc3cc(OCCCN4CCN(C)CC4)c(OC)cc23)c(Cl)cc1Cl [SKI606, 4-((2,4-Dichloro-5-methoxyphenyl)amino)-6-methoxy-7-(3-(4-methyl-1-piperazinyl)propoxy)-3-quinolinecarbonitrile]
- inhibition of Src-dependent protein tyrosine phosphorylation [1]: inhibits Src-dependent protein tyrosine phosphorylation at comparable concentrations
- cells died (cytotoxicity to BMM cells) (BMM cells [2]; 600 nM SKI606, 72 h): less than 10%
- cytotoxicity to BMM cells (BMM cells [2]; 72 h): not cytotoxic
- effect on RANKL-mediated osteoclast differentiation in BMM (BMM cells [3]): inhibitory effect on RANKL-mediated osteoclast differentiation in BMM in a dose dependent manner
- sensitivity of BMM cells to compound added after initiation of osteoclastogenesis (BMM cells [4]): less sensitive
- decrease in collagen I release, an indicator of bone resorption (BMM cells [5]): 3.7 fold
- inhibition of MDA-MB-435-induced osteoclastogenesis in RAW264.7 cells (RAW264.7 cells [6]): significantly inhibited
- inhibition of osteoclastogenesis induced by conditioned media from MDA-MB-435 cells (RAW264.7 cells [7]): able to inhibit
- TRAP-positive cells counted in sections of tumors (MDA-MB-435 cells): significantly fewer
